We go through 14 molecules from patent publication US9499550B2 (BRISTOL-MYERS SQUIBB COMPANY, priority 2012, dated 2016).

Assay [1] deals with HCV genotype 1a (H77 strain) replicon in HUH-7 cells. The assay is described as follows: HCV replicon luciferase reporter assay, genotype 1a. In kind it is cell-based. The conditions noted are these: Hepatitis C virus, Huh-7, 72 h, HCV genotype 1a replicon luciferase, 3 days incubation, read-out: LE_1a (EC50, range). The procedure, abridged:
(§1)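 Replicon inhibition for both genotypes was measured as Renilla luciferase signal (EnduRen, 7.5 μM final, 2 h) after 3-day, 37° C exposure of replicon-bearing HUH-7 cells in 4% FCS DMEM, 0.5% DMSO. The 1b construct carries S1179I; the 1a H77 construct carries P1496L and S2204I. Twenty-point, 3-fold dilutions were fitted four-parametrically for EC50, and CC50 was taken from multiplexed Cell Titer-Blue.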
(In antiviral work, replicon cells carry a viral genome segment that copies itself.)

In assay [2] the test system is HCV genotype 1b (Con1) replicon in HUH-7 cells. Kind of assay: HCV replicon luciferase reporter assay, genotype 1b. In kind it is cell-based. The conditions noted are these: Hepatitis C virus, Huh-7, 72 h, HCV genotype 1b replicon luciferase, 3 days incubation, read-out: LE_1b (EC50, range). The procedure, abridged:
as §1

A word on the EC50: it is the concentration giving half of the maximal effect.

Read-outs that look alike come from different tables or passages of the source.

Consider `C[C@@H]1CC/C=C\[C@@H]2C[C@@]2(C(=O)NS(=O)(=O)C2(C)CC2)NC(=O)[C@@H]2C[C@@H](Oc3ncc(OC4CC4)c4ccccc34)CN2C(=O)[C@@H](NC(=O)OC2CCCCC2)[C@H](C)C1` [Compound 4055, cyclohexyl (2R,6S,7R,9R,13aS,14aR,16aS,Z)-2-(4-cyclopropoxyisoquinolin-1-yloxy)-7,9-dimethyl-14a-(1-methylcyclopropylsulfonylcarbamoyl)-5,16-dioxo-1,2,3,5,6,7,8,9,10,11,13a,14,14a,15,16,16a-hexadecahydrocyclopropa[e]pyrrolo[1,2-a][1,4]diazacyclopentadecin-6-ylcarbamate], for which the EC50 in assay [1] and in assay [2] was under 5.46 nM throughout.

As for `C[C@@H]1CC/C=C\[C@@H]2C[C@@]2(C(=O)NS(=O)(=O)C2(C)CC2)NC(=O)[C@@H]2C[C@@H](Oc3ncc(OC4CC4)c4ccccc34)CN2C(=O)[C@@H](NC(=O)OC(C)(C)C(F)(F)F)[C@H](C)C1` [Compound 4056, 1,1,1-trifluoro-2-methylpropan-2-yl ((2R,6S,7R,9R,13aS,14aR,16aS,Z)-2-((4-cyclopropoxyisoquinolin-1-yl)oxy)-7,9-dimethyl-14a-(((1-methylcyclopropyl)sulfonyl)carbamoyl)-5,16-dioxo-1,2,3,5,6,7,8,9,10,11,13a,14,14a,15,16,16a-hexadecahydrocyclopropa[e]pyrrolo[1,2-a][1,4]diazacyclopentadecin-6-yl)carbamate], the EC50 in assay [1] and in assay [2] was under 5.46 nM each time.

For the molecule `COc1cnc(O[C@@H]2C[C@H]3C(=O)N[C@]4(C(=O)NS(=O)(=O)C5(C)CC5)C[C@H]4/C=C\CC[C@@H](C)C[C@@H](C)[C@H](NC(=O)OC(C)(C)C)C(=O)N3C2)c2ccccc12` [Compound 4057, tert-butyl (2R,6S,7R,9R,13aS,14aR,16aS,Z)-2-(4-methoxyisoquinolin-1-yloxy)-7,9-dimethyl-14a-(1-methylcyclopropylsulfonylcarbamoyl)-5,16-dioxo-1,2,3,5,6,7,8,9,10,11,13a,14,14a,15,16,16a-hexadecahydrocyclopropa[e]pyrrolo[1,2-a][1,4]diazacyclopentadecin-6-ylcarbamate], the EC50 in assay [1] and in assay [2] was under 5.46 nM each time.

Consider `COc1cnc(O[C@@H]2C[C@H]3C(=O)N[C@]4(C(=O)NS(=O)(=O)C5CC5)C[C@H]4/C=C\CC[C@@H](C)C[C@@H](C)[C@H](NC(=O)OC(C)(C)C(F)(F)F)C(=O)N3C2)c2cc(F)ccc12` [Compound 4059], for which the EC50 in assay [1] (GETYPE1A) and in assay [2] (GETYPE1B) was under 5.46 nM throughout.

For `COc1cnc(O[C@@H]2C[C@H]3C(=O)N[C@]4(C(=O)NS(=O)(=O)C5(C)CC5)C[C@H]4/C=C\CC[C@@H](C)C[C@@H](C)[C@H](NC(=O)OC(C)(C)C(F)(F)F)C(=O)N3C2)c2cc(F)ccc12` [Compound 4060], the EC50 in assay [1] (GETYPE1A) and in assay [2] (GETYPE1B) was under 5.46 nM throughout.

Turning to `CCOc1cnc(O[C@@H]2C[C@H]3C(=O)N[C@]4(C(=O)NS(=O)(=O)C5CC5)C[C@H]4/C=C\CC[C@@H](C)C[C@@H](C)[C@H](NC(=O)OC(C)(C)C)C(=O)N3C2)c2cc(F)ccc12` [Compound 4061, tert-butyl (2R,6S,7R,9R,13aS,14aR,16aS,Z)-14a-(cyclopropylsulfonylcarbamoyl)-2-(4-ethoxy-7-fluoroisoquinolin-1-yloxy)-7,9-dimethyl-5,16-dioxo-1,2,3,5,6,7,8,9,10,11,13a,14,14a,15,16,16a-hexadecahydrocyclopropa[e]pyrrolo[1,2-a][1,4]diazacyclopentadecin-6-ylcarbamate], the EC50 in assay [1] and in assay [2] was under 5.46 nM throughout.

Take `CCOc1cnc(O[C@@H]2C[C@H]3C(=O)N[C@]4(C(=O)NS(=O)(=O)C5CC5)C[C@H]4/C=C\CC[C@@H](C)C[C@@H](C)[C@H](NC(=O)OC(C)(C)C(F)(F)F)C(=O)N3C2)c2cc(F)ccc12` [Compound 4062]: the EC50 in assay [1] (GETYPE1A) and in assay [2] (GETYPE1B) was under 5.46 nM throughout.

As for `COc1ccc2c(O[C@@H]3C[C@H]4C(=O)N[C@]5(C(=O)NS(=O)(=O)C6(C)CC6)C[C@H]5/C=C\CC[C@@H](C)C[C@@H](C)[C@H](NC(=O)OC(C)(C)C)C(=O)N4C3)nc(-c3ccc(OC(C)C)cc3)cc2c1` [Compound 4063, tert-butyl (2R,6S,7R,9R,13aS,14aR,16aS,Z)-2-(3-(4-isopropoxyphenyl)-6-methoxyisoquinolin-1-yloxy)-7,9-dimethyl-14a-(1-methylcyclopropylsulfonylcarbamoyl)-5,16-dioxo-1,2,3,5,6,7,8,9,10,11,13a,14,14a,15,16,16a-hexadecahydrocyclopropa[e]pyrrolo[1,2-a][1,4]diazacyclopentadecin-6-ylcarbamate], the EC50 in assay [1] and in assay [2] was under 5.46 nM in each case.

With `COc1ccc2c(O[C@@H]3C[C@H]4C(=O)N[C@]5(C(=O)NS(=O)(=O)C6(C)CC6)C[C@H]5/C=C\CC[C@@H](C)C[C@@H](C)[C@H](NC(=O)OC(C)(C)C(F)(F)F)C(=O)N4C3)nc(-c3ccc(OC(C)C)cc3)cc2c1` [Compound 4064], the EC50 in assay [1] (GETYPE1A) and in assay [2] (GETYPE1B) was under 5.46 nM in each case.

Take `COc1cnc(O[C@@H]2C[C@H]3C(=O)N[C@]4(C(=O)NS(=O)(=O)C5(C)CC5)C[C@H]4/C=C\CC[C@@H](C)C[C@@H](C)[C@H](NC(=O)OC(C)(C)C(F)(F)F)C(=O)N3C2)c2cccc(Cl)c12` [Compound 4065]: the EC50 in assay [1] (GETYPE1A) and in assay [2] (GETYPE1B) was under 5.46 nM in each case.

For the molecule `CCOc1cnc(O[C@@H]2C[C@H]3C(=O)N[C@]4(C(=O)NS(=O)(=O)C5(C)CC5)C[C@H]4/C=C\CC[C@@H](C)C[C@@H](C)[C@H](NC(=O)O[C@H](C)C(F)(F)F)C(=O)N3C2)c2ccccc12` [Compound 4066, (R)-1,1,1-trifluoropropan-2-yl (2R,6S,7R,9R,13aS,14aR,16aS,Z)-2-(4-ethoxyisoquinolin-1-yloxy)-7,9-dimethyl-14a-(1-methylcyclopropylsulfonylcarbamoyl)-5,16-dioxo-1,2,3,5,6,7,8,9,10,11,13a,14,14a,15,16,16a-hexadecahydrocyclopropa[e]pyrrolo[1,2-a][1,4]diazacyclopentadecin-6-ylcarbamate], the EC50 in assay [1] and in assay [2] was under 5.46 nM in each case.

For the molecule `C[C@@H]1CC/C=C\[C@@H]2C[C@@]2(C(=O)NS(=O)(=O)C2CC2)NC(=O)[C@@H]2C[C@@H](Oc3ncc(OCC4CC4)c4ccc(F)cc34)CN2C(=O)[C@@H](NC(=O)OC(C)(C)C(F)(F)F)[C@H](C)C1` [Compound 4067], the values for the EC50 in assay [1] (GETYPE1A) and in assay [2] (GETYPE1B) were 4.82 to 103 nM and under 5.46 nM, respectively.

On to `COc1cnc(O[C@@H]2C[C@H]3C(=O)N[C@]4(C(=O)NS(=O)(=O)C5(F)CC5)C[C@H]4/C=C\CC[C@@H](C)C[C@@H](C)[C@H](NC(=O)OC(C)(C)C(F)(F)F)C(=O)N3C2)c2cc(F)ccc12` [Compound 4068], for which the EC50 in assay [1] (GETYPE1A) and in assay [2] (GETYPE1B) was under 5.46 nM in each case.

With `COc1cc2ccnc(O[C@@H]3C[C@H]4C(=O)N[C@]5(C(=O)NS(=O)(=O)C6(F)CC6)C[C@H]5/C=C\CC[C@@H](C)C[C@@H](C)[C@H](NC(=O)OC(C)(C)C(F)(F)F)C(=O)N4C3)c2cc1F` [Compound 4069], the EC50 in assay [1] (GETYPE1A) and in assay [2] (GETYPE1B) was under 5.46 nM throughout.
